pEC50: −log10 of the molar value. Inconclusive results are not listed. Calls of active or inactive are those of the source. The rule behind the calls is not given here.
Tested on: Chlamydomonas reinhardtii, Nile Red lipid fluorescence, 72 h
Assay: algal triacylglycerol accumulation inducers, dose response, qHTS, Chlamydomonas reinhardtii (AID 1159536)

For COc1ccc(CNCc2ccc(C)cc2)c(OC)c1, the EC50 was 9.94 µM (inactive).
In the case of O=C(CN1CCCCC1)Nc1ncc(Cc2ccc(F)cc2)s1, the EC50 was 0.0585 µM (inactive).
COc1cc(C(=O)Nc2nc3c(s2)CCCC3)cc(OC)c1OC was tested, and the EC50 was 0.379 µM (inactive).
For COc1ccccc1C(=O)N1CCN(C(=O)C(c2ccccc2)c2ccccc2)CC1, the EC50 was 5.62 µM (inactive).
COc1ccc(C(=O)NCCN2CCOCC2)cc1[N+](=O)[O-] was tested, and the EC50 was 5.99 µM (inactive).
In the case of O=[N+]([O-])c1ccccc1CN1CCN(CC2CC3C=CC2C3)CC1 (configuration not stated), the EC50 was 11.7 µM (inactive).
O=C(Nc1ccc([N+](=O)[O-])cc1)c1c(F)c(F)c(F)c(F)c1F was tested, and the EC50 was 1.36 µM (inactive).
With CCOc1ccccc1C(=O)NC1CC1 the EC50 was 26.5 µM (inactive).
In the case of CCc1ccc(CN2CCN(c3ccccc3C)CC2)cc1, the EC50 was 1.33 µM (inactive).
CC(C)(Oc1ccc(Cl)cc1)C(=O)Nc1ccc(Br)cc1F was tested, and the EC50 was 1.81 µM (inactive).
In the case of CN1CCN(CCOc2ccc(C(C)(C)c3ccccc3)cc2)CC1, the EC50 was 2.37 µM (inactive).
For CC(C)C(NS(=O)(=O)c1cccs1)C(C)C, the EC50 was 21.6 µM (inactive).
With CC1(C)CC(NC(=O)Cc2ccccc2[N+](=O)[O-])CC(C)(C)N1 the EC50 was 10.3 µM (inactive).
In the case of CCN(CC)c1cc(C)nc(N)n1, the EC50 was 2.53 µM (inactive).
Cc1cc(C(C)(C)C)ccc1OCCOCCN1CCN(C)CC1 was tested, and the EC50 was 0.566 µM (inactive).
With O=C(Nc1cccnc1)c1ccc(S(=O)(=O)c2ccc(Cl)cc2)cc1 the EC50 was 6.72 µM (inactive).
Cc1c(NC(=O)COc2ccc(Br)cc2)cccc1[N+](=O)[O-] was tested, and the EC50 was 1.37 µM (inactive).
In the case of Cc1cc(C=O)c(C)n1-c1ccc(Br)cc1F, the EC50 was 12 µM (inactive).
For O=C(CN1CCCCC1)Nc1ncc(Cc2ccc(Br)cc2)s1, the EC50 was 1.27 µM (inactive).
Cc1ccc(C(=O)c2ccc(N3CCN(C)CC3)c([N+](=O)[O-])c2)cc1 was tested, and the EC50 was 2.59 µM (inactive).
CCC(CC)C(=O)Nc1ccc(C(=O)Nc2nccs2)cc1 was tested, and the EC50 was 1.83 µM (inactive).
For CC(C)NC(=O)c1ccccc1NC(=O)c1ccc(Cl)cc1, the EC50 was 0.59 µM (inactive).
For O=C1CC(N2CCc3ccccc3C2)C(=O)N1c1ccc([N+](=O)[O-])cc1 (configuration not stated), the EC50 was 15.7 µM (inactive).
In the case of Cc1ccc2nc(NC(=O)C3CC3)sc2c1, the EC50 was 15.1 µM (inactive).
For CSc1ccc(CN2CCSCC2)cc1, the EC50 was 10.5 µM (inactive).
COc1cccc(NC2=C(N(C)C)C(=O)c3ccccc3C2=O)c1 was tested, and the EC50 was 1.87 µM (inactive).
For Cc1ccc(C(=O)Nc2ccc(Cl)cc2C)cc1C, the EC50 was 16.6 µM (inactive).
In the case of O=C(Nc1ccc(S(=O)(=O)N2CCCC2)cc1)c1ccc(Cl)cc1Cl, the EC50 was 2.32 µM (inactive).
For CN1CCN(CC#CC=C(c2ccccc2)c2ccccc2)CC1, the EC50 was 2.57 µM (inactive).

Point of comparison: CN(CCC#N)C12CC3CC(CC(C3)C1)C2, pEC50 5.06. Against it:
- Clc1ccc(Cl)c(OCCCCN2CCNCC2)c1 — 0.21 log units higher, 5.27
- Brc1ccc2ncnc(N3CCN(Cc4ccccc4)CC3)c2c1 — 0.63 log units higher, 5.69
- O=[N+]([O-])c1ccc(CN2CCN(Cc3ccccc3)CC2)cc1 — within 0.2 log units, 5.20
- O=C(Nc1ccccc1C(=O)Nc1ccccc1Cl)c1ccncc1 — within 0.2 log units, 5.02
- c1ccc(CN2CCN(C3CCCCC3)CC2)cc1 — within 0.2 log units, 5.00
- C1=CC2CC1CC2CN1CCN(C2CCC(c3ccccc3)CC2)CC1 (configuration not stated) — 0.78 log units higher, 5.84
- COc1cccc(N2CCN(Cc3ccc([N+](=O)[O-])cc3)CC2)c1 — 1.12 log units higher, 6.18
- CC(C)NCC(=O)NC12CC3CC(CC(C3)C1)C2 — 1.13 log units higher, 6.19
- O=C(Nc1ccc([N+](=O)[O-])cc1)c1ccccc1Cl — 0.23 log units higher, 5.29
- CN1CCC(N(C)Cc2cc(Cl)ccc2O)CC1 — 0.53 log units higher, 5.59
- Cc1ccc(N2CCN(C3CCCCCC3)CC2)cc1 — 1.13 log units higher, 6.19
- Oc1ccc(Cl)cc1CN1CCN(Cc2ccccc2)CC1 — 0.39 log units higher, 5.45
- CC(C)(C)c1ccc(OCC(O)CN2CCN(CCO)CC2)cc1 (configuration not stated) — 0.83 log units higher, 5.89
- C1=CC2CC1CC2CN1CCN(Cc2ccccc2)CC1 (configuration not stated) — within 0.2 log units, 5.21
- Cc1ccc(C)c(N2CCN(C3CCc4ccccc4C3)CC2)c1 (configuration not stated) — 0.28 log units lower, 4.78
- CN(Cc1ccc([N+](=O)[O-])cc1)C1CCCCC1 — 2.00 log units higher, 7.06
- O=[N+]([O-])c1ccc(CN2CCN(Cc3ccccc3F)CC2)cc1 — within 0.2 log units, 5.08
- COc1ccc(OC)c(CNCCc2ccc([N+](=O)[O-])cc2)c1 — 1.13 log units higher, 6.19
- Oc1ccc(CN2CCN(c3ccccc3Cl)CC2)cc1 — 1.14 log units higher, 6.20
- C=CCc1ccccc1OCC(O)CN(C)C1CCCCC1 (configuration not stated) — 0.25 log units higher, 5.31
- CN(CC(O)COc1ccc(F)cc1)C1CCCCC1 (configuration not stated) — within 0.2 log units, 4.95
- CN1CCN(C2C3CC4CC(C3)CC2C4)CC1 (configuration not stated) — within 0.2 log units, 5.01
- O=[N+]([O-])c1ccc(CN2CCN(c3ccccc3)CC2)cc1 — 1.70 log units higher, 6.76
- CCc1cccc(OCC(=O)Nc2cc(OC)c(OC)cc2C(=O)O)c1 — 0.80 log units higher, 5.86
- CN(CC(O)COc1ccc(Br)cc1)C1CCCCC1 (configuration not stated) — within 0.2 log units, 5.17
- COc1ccccc1N1CCN(C2CCN(Cc3cccc(F)c3)CC2)CC1 — within 0.2 log units, 4.98
- COc1ccc(NC(=O)CCC2CCCCC2)c([N+](=O)[O-])c1 — within 0.2 log units, 5.17
- Clc1ccc(OCCCCN2CCCC2)c(Br)c1 — 0.53 log units higher, 5.59
- COc1ccc(CCN(C)Cc2ccc([N+](=O)[O-])cc2)cc1OC — within 0.2 log units, 5.00
- O=C(CN1CCCCC1)NC12CC3CC(CC(C3)C1)C2 — 0.40 log units higher, 5.46
- C/C=C(\C)CN1CCN(c2ccc(C)cc2)CC1 — 0.32 log units higher, 5.38
- COc1ccc(OC)c(CN2CCN(Cc3ccc([N+](=O)[O-])cc3)CC2)c1 — 0.81 log units higher, 5.87
- CCc1ccc(CN2CCN(CCO)CC2)cc1 — within 0.2 log units, 5.12
- c1coc(CN2CCN(C3CCCCC3)CC2)c1 — within 0.2 log units, 4.92
- COc1ccccc1N1CCN(Cc2ccc(C)cc2)CC1 — 0.38 log units higher, 5.44
- Cc1ccc(OCCCN2CCOCC2)c(C)c1 — within 0.2 log units, 4.99
- Oc1ccc(CN2CCN(Cc3ccccc3)CC2)cc1 — within 0.2 log units, 4.95
- O=S(=O)(c1ccc(F)cc1)N1CCN(C2CCCCC2)CC1 — within 0.2 log units, 4.99
- Cc1ccc(OCCOCCN2CCOCC2)c([N+](=O)[O-])c1 — 0.51 log units higher, 5.57
- CCN1CCN(C2CCC(C)CC2)CC1 (configuration not stated) — within 0.2 log units, 5.00
- c1ccc(CN2CCC(N3CCN(C4CC5CCC4C5)CC3)CC2)cc1 (configuration not stated) — within 0.2 log units, 5.00
- Cc1cc(Br)ccc1OCCOCCN1CCOCC1 — within 0.2 log units, 5.11
- COc1cc(C)c(CN2CCN(Cc3ccc4c(c3)OCO4)CC2)cc1C — 0.63 log units higher, 5.69
- Cc1ccccc1N1CCN(Cc2ccc(F)cc2)CC1 — 0.81 log units higher, 5.87
- CS(=O)(=O)N1CCN(C2C3CC4CC(C3)CC2C4)CC1 (configuration not stated) — 0.27 log units higher, 5.33
- Cc1ccc(C)c(N2CCN(CC3CC4C=CC3C4)CC2)c1 (configuration not stated) — 0.54 log units lower, 4.52
- Nc1ccc(C(=O)Nc2ccc(Cl)cc2Cl)cc1 — 0.77 log units higher, 5.83
- COc1ccc(CN2CCN(CC3CC4C=CC3C4)CC2)cc1OC (configuration not stated) — 0.35 log units higher, 5.41
- CC1CCCN(C2CCN(S(=O)(=O)c3ccc(F)cc3)CC2)C1 (configuration not stated) — within 0.2 log units, 4.88
- Clc1ccc(CN2CCCCCC2)cc1 — 0.63 log units higher, 5.69
- Clc1ccccc1OCCCCN1CCOCC1 — 0.21 log units higher, 5.27
- Clc1ccc(N2CCN(Cc3ccc4c(c3)OCO4)CC2)cc1 — 0.82 log units higher, 5.88
- c1ccc(N2CCN(Cc3ccsc3)CC2)cc1 — 1.13 log units higher, 6.19
- O=C(C1COc2ccccc2O1)N1CCN(Cc2ccccc2)CC1 (configuration not stated) — within 0.2 log units, 4.98
- Cc1cccc(-c2cc(NC(=O)c3ccc([N+](=O)[O-])cc3)n[nH]2)c1 — within 0.2 log units, 5.16
- CCN1CCN(Cc2ccc(N(CC)CC)cc2)CC1 — 1.24 log units higher, 6.30
- COc1cc(CN2CCN(Cc3ccc([N+](=O)[O-])cc3)CC2)cc(OC)c1 — 0.36 log units higher, 5.42
- CCN(Cc1ccccc1)C(=O)C1CCN(CCCc2ccccc2)CC1 — 0.83 log units higher, 5.89
- CN1CC=C(CNc2cccc3c2CCCC3)CC1 — 0.53 log units higher, 5.59
- C(#CCN1CCCCC1)COc1ccccc1 — 0.25 log units higher, 5.31
- Fc1ccccc1N1CCN(CC2CCCCC2)CC1 — within 0.2 log units, 4.98
- CC(CCc1ccc(O)cc1)NC1C2CC3CC(C2)CC1C3 (configuration not stated) — 0.50 log units higher, 5.56
- CN(c1ccc(C(=O)NC2CCCCCC2)cc1)S(=O)(=O)c1ccccc1 — 0.24 log units higher, 5.30
- Cc1ccc(C(=O)Nc2ccc3oc(-c4ccncc4)nc3c2)cc1C — 0.74 log units higher, 5.80
- C=CCc1cccc(C)c1OCCCN1CCN(C)CC1 — 0.65 log units higher, 5.71
- Cc1cc(Cl)c(OCCOCCN2CCN(C)CC2)c(Br)c1 — 0.45 log units higher, 5.51
- Cc1ccc(OCCCn2ccnc2)c(Br)c1 — 0.84 log units higher, 5.90
- O=[N+]([O-])c1ccc(CN2CCN(Cc3cc(Br)ccc3O)CC2)cc1 — 0.55 log units higher, 5.61
- CN1CCN(Cc2cccc(Oc3ccccc3)c2)CC1 — within 0.2 log units, 5.00
- CCN(Cc1ccccc1)C(=O)C1CCN(Cc2ccccc2F)CC1 — 0.82 log units higher, 5.88
- CN1CCCN(CC2=CC[C@H]3C[C@@H]2C3(C)C)CC1 — within 0.2 log units, 4.99
- C=CCc1cc(Cl)ccc1OCCN1CCN(C)CC1 — 0.21 log units lower, 4.85
- Clc1ccc(OCCOCCN2CCOCC2)c(Br)c1 — within 0.2 log units, 5.10
- CC1CCC(N2CCN(Cc3ccccc3)CC2)CC1 (configuration not stated) — within 0.2 log units, 5.25
- Cc1ccc(C(C)C)cc1OCCCCN1CCOCC1 — 0.34 log units higher, 5.40
- c1ccc(CN2CCN(C3CC4CCC3C4)CC2)cc1 (configuration not stated) — within 0.2 log units, 5.00
- Cc1cc(OCCN2CCN(C)CC2)ccc1C(C)C — 0.53 log units higher, 5.59
- Cc1cccc(OCCCCN2CCOCC2)c1 — 0.51 log units higher, 5.57
- O=[N+]([O-])c1cccc(CNC2CCCCCC2)c1 — 0.90 log units higher, 5.96
- Cc1ccc(C(C)C)cc1OCCOCCN1CCOCC1 — 0.60 log units higher, 5.66
- CCN1CCN(C2CCC(c3ccccc3)CC2)CC1 (configuration not stated) — 0.69 log units higher, 5.75
- Nn1c(SCC(=O)NC23CC4CC(CC(C4)C2)C3)nnc1-c1ccc(Cl)cc1Cl — within 0.2 log units, 5.15
- Oc1ccc(Br)cc1CN1CCC(N2CCOCC2)CC1 — 0.42 log units lower, 4.64
- CN1CCN(c2ccc([N+](=O)[O-])c(N3CCCCC3)c2)CC1 — within 0.2 log units, 4.99
- O=[N+]([O-])c1ccc(CN2CCN(C3CC4CCC3C4)CC2)cc1 (configuration not stated) — 0.54 log units higher, 5.60
- CC1CCCN(C(=O)COc2ccc(Cl)cc2)C1 (configuration not stated) — 0.84 log units higher, 5.90
- CN1CCC(N(C)Cc2cccc(Oc3ccccc3)c2)CC1 — within 0.2 log units, 5.00
- COc1ccc(CN2CCN(Cc3ccccc3)CC2)c(OC)c1OC — within 0.2 log units, 4.94
- O=[N+]([O-])c1ccc(C(O)CN2CCN(Cc3ccccc3)CC2)cc1 (configuration not stated) — within 0.2 log units, 4.90
- CCN(CC)CC(=O)Nc1ccc(Br)cc1 — within 0.2 log units, 4.98
- CCSc1ccc(C(=O)Nc2ccc(Cc3ccncc3)cc2)cc1[N+](=O)[O-] — 0.52 log units higher, 5.58
- Clc1cc(Br)ccc1OCCCCN1CCOCC1 — 0.82 log units higher, 5.88
- Cc1ccc(CN2CCCC(CO)C2)cc1 (configuration not stated) — within 0.2 log units, 5.00
- Cc1cc(Br)ccc1OCCCCN1CCCC1 — 0.51 log units higher, 5.57
- Fc1ccc(N2CCN(Cc3ccccc3)CC2)cc1 — 0.80 log units higher, 5.86
- Cc1cc(Cl)cc(C)c1OCCn1ccnc1 — 0.83 log units higher, 5.89
- C=CCN1C(=O)C(=O)c2cc(Br)ccc21 — within 0.2 log units, 5.23

Reference: PubChem BioAssay AID1159536 (DiRusso Lab, Biochemistry Department, University of Nebraska, 2015)
